This note sets out measurements from publication PMC12394658, “Discovery of Zharp1-163 as a dual inhibitor of ferroptosis and necroptosis for the treatment of inflammatory disorders and kidney injury” (Cell Death Discovery, 2025).

For orientation: inhibition means the drop in the measured response relative to a control, in per cent.

What all share (test): biochemical
Holding throughout (set-up): Kinase selectivity panel of 81 human kinases, ADP-Glo or HTRF, per cent inhibition at 1 uM
On the technique in general: ADP-Glo first removes unused ATP, then detects ADP through luciferase.

The target in assay [1] is T1, ALK4 (Homo sapiens, UniProt P36896).
T1 construct: gene ACVR1B
T1 sequence (P36896 whole entry): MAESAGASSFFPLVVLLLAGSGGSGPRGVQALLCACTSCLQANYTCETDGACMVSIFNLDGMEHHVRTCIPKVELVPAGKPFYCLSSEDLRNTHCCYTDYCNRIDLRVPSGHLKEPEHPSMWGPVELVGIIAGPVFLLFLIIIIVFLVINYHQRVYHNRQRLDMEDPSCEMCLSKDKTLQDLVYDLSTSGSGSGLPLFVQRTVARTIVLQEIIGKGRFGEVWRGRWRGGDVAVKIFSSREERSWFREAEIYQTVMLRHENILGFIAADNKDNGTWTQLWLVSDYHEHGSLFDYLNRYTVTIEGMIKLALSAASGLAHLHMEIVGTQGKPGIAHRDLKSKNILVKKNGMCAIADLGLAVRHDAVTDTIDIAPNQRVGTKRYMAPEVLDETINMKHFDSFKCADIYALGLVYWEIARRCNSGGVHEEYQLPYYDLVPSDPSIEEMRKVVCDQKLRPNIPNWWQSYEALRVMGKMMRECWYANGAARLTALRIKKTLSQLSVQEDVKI
The essentials: (§1)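 Kinase-panel selectivity profiling of 81 kinases with compound at 1000 nM.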

The target of assay [2] is T2, AMPKα1/β1/γ1 (Homo sapiens, UniProt Q13131).
T2 construct: gene PRKAA1
T2 sequence (Q13131 whole entry): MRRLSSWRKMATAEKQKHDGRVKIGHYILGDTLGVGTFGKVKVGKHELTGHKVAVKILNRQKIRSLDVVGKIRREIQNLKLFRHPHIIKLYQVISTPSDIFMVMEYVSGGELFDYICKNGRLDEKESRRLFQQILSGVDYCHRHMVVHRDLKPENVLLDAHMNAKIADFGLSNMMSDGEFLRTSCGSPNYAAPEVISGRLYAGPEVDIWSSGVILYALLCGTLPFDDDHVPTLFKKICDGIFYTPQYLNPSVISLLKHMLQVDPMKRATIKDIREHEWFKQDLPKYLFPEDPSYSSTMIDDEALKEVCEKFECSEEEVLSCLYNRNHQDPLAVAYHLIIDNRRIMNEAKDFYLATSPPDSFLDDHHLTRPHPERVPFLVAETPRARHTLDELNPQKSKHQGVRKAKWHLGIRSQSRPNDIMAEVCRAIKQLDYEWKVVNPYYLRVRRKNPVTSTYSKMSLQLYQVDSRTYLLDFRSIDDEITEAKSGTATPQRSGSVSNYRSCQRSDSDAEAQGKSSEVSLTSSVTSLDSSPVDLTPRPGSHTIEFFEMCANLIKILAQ
T2 sequence (P54619 whole entry partner): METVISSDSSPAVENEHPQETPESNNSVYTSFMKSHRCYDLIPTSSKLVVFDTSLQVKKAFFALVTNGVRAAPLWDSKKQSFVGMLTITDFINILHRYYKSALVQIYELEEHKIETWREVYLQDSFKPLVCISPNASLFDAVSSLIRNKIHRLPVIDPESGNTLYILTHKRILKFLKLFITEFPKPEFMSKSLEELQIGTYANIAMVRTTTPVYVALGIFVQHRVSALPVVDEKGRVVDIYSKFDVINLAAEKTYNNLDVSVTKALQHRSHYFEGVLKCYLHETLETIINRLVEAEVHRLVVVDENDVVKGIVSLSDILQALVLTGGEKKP
T2 sequence (Q9Y478 whole entry partner): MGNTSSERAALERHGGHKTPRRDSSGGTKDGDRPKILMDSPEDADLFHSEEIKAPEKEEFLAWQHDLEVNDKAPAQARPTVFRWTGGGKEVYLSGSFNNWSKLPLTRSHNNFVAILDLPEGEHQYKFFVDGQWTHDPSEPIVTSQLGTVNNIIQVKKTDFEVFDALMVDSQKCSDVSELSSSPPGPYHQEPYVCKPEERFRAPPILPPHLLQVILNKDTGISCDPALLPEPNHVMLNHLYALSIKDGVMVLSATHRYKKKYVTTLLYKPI
The procedure, abridged: as §1

Assay [3] deals with GAK (Homo sapiens, UniProt O14976). The procedure, abridged: as §1
Sequence of GAK (O14976 whole entry): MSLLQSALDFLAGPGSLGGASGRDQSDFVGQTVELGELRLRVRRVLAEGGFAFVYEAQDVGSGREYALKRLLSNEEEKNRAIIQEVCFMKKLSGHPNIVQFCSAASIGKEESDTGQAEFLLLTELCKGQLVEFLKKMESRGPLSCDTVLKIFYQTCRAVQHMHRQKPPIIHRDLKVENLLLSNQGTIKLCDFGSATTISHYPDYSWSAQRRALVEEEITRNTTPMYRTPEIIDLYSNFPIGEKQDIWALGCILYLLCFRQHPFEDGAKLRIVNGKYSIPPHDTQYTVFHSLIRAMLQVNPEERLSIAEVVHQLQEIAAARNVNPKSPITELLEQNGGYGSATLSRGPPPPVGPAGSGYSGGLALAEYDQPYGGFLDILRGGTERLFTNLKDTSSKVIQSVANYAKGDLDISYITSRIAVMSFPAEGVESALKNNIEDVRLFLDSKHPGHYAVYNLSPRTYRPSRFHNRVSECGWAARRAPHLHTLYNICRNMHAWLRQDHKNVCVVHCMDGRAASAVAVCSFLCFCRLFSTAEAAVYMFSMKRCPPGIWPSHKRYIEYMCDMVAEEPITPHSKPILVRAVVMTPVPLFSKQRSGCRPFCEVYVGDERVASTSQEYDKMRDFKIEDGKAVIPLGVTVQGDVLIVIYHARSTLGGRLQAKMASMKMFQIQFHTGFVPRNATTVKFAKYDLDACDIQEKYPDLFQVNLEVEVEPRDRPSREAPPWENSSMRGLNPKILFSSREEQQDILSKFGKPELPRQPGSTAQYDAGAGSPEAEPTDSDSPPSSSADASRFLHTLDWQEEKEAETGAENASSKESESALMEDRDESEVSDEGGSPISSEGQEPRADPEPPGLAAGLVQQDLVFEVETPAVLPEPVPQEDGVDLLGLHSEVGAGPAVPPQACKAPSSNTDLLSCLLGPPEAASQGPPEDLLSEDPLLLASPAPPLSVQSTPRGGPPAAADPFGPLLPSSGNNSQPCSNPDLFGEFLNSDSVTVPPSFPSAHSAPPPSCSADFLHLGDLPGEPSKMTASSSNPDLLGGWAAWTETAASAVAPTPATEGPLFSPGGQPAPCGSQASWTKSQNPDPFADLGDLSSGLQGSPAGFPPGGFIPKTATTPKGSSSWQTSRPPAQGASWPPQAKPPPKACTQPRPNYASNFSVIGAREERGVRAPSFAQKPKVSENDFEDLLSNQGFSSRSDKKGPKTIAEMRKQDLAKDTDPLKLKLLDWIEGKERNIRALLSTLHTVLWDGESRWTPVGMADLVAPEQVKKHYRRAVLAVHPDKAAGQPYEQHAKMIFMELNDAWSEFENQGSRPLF
Assay [4] concerns the target HIPK1 (Homo sapiens, UniProt Q86Z02). The procedure, abridged: as §1
Assay [5] concerns the target KDR (Homo sapiens, UniProt P35968). The procedure, abridged: as §1
In assay [6] the target is LCK (Homo sapiens, UniProt P06239). The procedure, abridged:
as §1

The target in assay [7] is MAP2K1 (Homo sapiens, UniProt Q02750). The essentials: as §1
Sequence of MAP2K1 (Q02750 whole entry): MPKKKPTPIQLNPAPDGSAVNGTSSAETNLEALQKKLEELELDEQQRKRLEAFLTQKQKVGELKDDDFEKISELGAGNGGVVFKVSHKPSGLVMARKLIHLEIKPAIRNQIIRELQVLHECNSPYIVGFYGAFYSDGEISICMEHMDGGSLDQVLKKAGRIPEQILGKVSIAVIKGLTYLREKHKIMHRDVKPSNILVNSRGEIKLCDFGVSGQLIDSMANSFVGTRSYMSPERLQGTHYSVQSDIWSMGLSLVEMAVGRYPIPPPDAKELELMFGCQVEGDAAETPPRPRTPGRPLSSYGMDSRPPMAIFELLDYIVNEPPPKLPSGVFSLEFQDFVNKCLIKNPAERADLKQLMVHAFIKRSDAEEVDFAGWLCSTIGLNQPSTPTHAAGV
The target of assay [8] is MARK1 (Homo sapiens, UniProt Q9P0L2). The procedure, abridged: as §1
Assay [9] has as its target MET (Homo sapiens, UniProt P08581). The essentials: as §1
Assay [10] has as its target PAK2 (Homo sapiens, UniProt Q13177). The essentials:
as §1

In assay [11] the target is SRC (Homo sapiens, UniProt P12931). The procedure, abridged: as §1
The target in assay [12] is T3, TGFβR2 (Homo sapiens, UniProt P37173).
T3 construct: gene TGFBR2
T3 sequence (P37173 whole entry): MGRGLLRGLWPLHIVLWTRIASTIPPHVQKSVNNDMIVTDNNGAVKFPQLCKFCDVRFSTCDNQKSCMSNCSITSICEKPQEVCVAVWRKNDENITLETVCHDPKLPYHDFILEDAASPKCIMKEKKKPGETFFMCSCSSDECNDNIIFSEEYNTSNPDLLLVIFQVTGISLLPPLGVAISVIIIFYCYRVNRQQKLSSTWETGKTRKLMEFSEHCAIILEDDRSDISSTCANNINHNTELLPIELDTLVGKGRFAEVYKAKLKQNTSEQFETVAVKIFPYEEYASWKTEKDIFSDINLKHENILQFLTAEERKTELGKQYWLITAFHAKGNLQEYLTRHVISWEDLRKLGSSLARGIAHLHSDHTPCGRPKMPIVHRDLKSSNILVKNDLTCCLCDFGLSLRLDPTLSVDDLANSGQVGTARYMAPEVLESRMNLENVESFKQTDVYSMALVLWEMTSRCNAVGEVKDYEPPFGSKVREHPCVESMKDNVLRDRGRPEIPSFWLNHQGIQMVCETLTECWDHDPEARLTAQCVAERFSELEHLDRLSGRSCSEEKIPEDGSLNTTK
The procedure, abridged:
as §1

Sequence of LCK (P06239 whole entry): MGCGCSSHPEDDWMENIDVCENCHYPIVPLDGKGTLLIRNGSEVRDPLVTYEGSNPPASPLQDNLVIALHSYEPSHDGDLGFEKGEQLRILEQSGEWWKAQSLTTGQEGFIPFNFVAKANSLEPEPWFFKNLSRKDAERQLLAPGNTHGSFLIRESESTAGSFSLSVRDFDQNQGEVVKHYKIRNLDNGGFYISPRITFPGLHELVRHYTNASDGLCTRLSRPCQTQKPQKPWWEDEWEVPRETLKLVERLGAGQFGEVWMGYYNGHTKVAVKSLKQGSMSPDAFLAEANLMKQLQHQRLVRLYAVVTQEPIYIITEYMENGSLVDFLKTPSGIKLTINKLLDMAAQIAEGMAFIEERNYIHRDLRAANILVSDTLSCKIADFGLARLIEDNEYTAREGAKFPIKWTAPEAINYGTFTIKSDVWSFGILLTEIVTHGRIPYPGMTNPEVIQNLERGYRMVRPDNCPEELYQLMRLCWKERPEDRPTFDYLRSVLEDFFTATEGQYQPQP
Sequence of PAK2 (Q13177 whole entry): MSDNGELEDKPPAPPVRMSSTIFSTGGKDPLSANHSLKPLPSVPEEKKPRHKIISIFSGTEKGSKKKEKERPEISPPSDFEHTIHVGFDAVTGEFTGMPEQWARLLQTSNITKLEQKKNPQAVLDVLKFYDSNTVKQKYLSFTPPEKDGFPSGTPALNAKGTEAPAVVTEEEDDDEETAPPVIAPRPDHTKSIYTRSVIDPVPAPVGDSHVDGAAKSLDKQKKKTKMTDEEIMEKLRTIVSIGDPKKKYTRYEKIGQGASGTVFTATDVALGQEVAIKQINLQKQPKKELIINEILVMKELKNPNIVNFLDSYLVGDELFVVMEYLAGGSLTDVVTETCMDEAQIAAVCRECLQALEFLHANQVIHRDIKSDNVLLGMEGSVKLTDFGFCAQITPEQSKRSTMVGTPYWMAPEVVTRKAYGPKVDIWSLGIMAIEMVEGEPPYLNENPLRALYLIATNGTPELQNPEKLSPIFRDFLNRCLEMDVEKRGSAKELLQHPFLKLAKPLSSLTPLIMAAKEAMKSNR

As for `Nc1cn2cc(-c3cnc4c(c3)N(C(=O)OC3CCCCC3)CCO4)ccc2n1` [Zharp1-163], the inhibition at 1 µM in assay [1] (replicate Data1) was -1.47%; in [1] (replicate Data2), -2.74%; in assay [2] (replicate Data1), 12.1%; in assay [2] (replicate Data2), 6.96%; in [3] (replicate Data1), 18.2%; in assay [3] (replicate Data2) it was 19.7%. Besides, the inhibition at 1 µM in assay [4] (replicate Data1) is 8.39%; in assay [4] (replicate Data2), -1.36%; in assay [5] (replicate Data1), -2.59%; in assay [5] (replicate Data2), -4.74%; in assay [6] (replicate Data1), -16.9%; in assay [6] (replicate Data2), -10.8%. Further, the inhibition at 1 µM in [7] (replicate Data1) is -8.67%; in assay [7] (replicate Data2) it was 0.16%; in [8] (replicate Data1), -11.5%; in assay [8] (replicate Data2), 4.11%; in [9] (replicate Data1), 18.3%; in assay [9] (replicate Data2), 3.81%. Also, the inhibition at 1 µM in assay [10] (replicate Data1) is -3.2%; in [10] (replicate Data2), -2.35%; in assay [11] (replicate Data1), -5.44%; in assay [11] (replicate Data2) it was -0.43%; in assay [12] (replicate Data1), 7.99%; in assay [12] (replicate Data2), 3.92%.
